Measured values: ChEMBL document CHEMBL6121063, “Identification of a Potent and Selective CDK9 Degrader as a Targeted Therapeutic Option for the Treatment of Small-Cell Lung Cancer” (J Med Chem, 2025)
Active and inactive are the calls of the source. No cut-off for these calls is given here.

Key:
[1] = target: CDK3/Cyclin E (Homo sapiens) (UniProt P24864+Q00526); assay: Inhibition of CDK3/cyclin E1 (unknown origin) at 10 nM relative to control; type: protein-complex assay
NCI-H69 [2] = assay: Induction of apoptosis in human NCI-H69 cells incubated for 36 hrs by Annexin V-FITC/PI staining based flow cytometric analysis; type: functional, cell-based; conditions: dose 1-8 nM
[3] = tested on: Small cell lung cancer cell line; assay: Antitumor activity against LDI-2025-362195 patient derived Small cell lung cancer cell line xenografted in BALB/c nude mouse assessed as reduction in tumor growth at 25 mg/kg, po administered once daily for 7 days; type: functional, organism-based; conditions: Homo sapiens, time 7.0 day
NCI-H446 [4] = assay: Cell cycle arrest in human NCI-H446 cells assessed as increase in G1 phase population incubated for 36 hrs by PI staining based flow cytometric analysis; type: functional; conditions: dose 0.5-2 nM
[5] = target: T1, Protein cereblon/Cyclin-dependent kinase 9 (Homo sapiens, UniProt P50750+Q96SW2); assay: PROTAC activity at CRBN/CDK9 in human NCI-H69 cells assessed as induction of CDK9 degradation at 10 nM measured within 3 hrs by Western blot analysis; type: cell-based
[6] = target: Cyclin-dependent kinase 5/CDK5 activator 1 (Homo sapiens) (UniProt Q00535+Q15078); assay: Inhibition of CDK5/p35NCK (unknown origin) at 10 nM relative to control; type: protein-complex assay
[7] = tested on: Small cell lung cancer cell line; assay: Antitumor activity against LDI-0025-362145 patient derived Small cell lung cancer cell line xenografted in BALB/c nude mouse assessed as reduction in tumor growth at 25 mg/kg, po administered once daily for 7 days; type: functional, organism-based; conditions: Homo sapiens, time 7.0 day
NCI-H69 [8] = assay: Induction of apoptosis in human NCI-H69 cells assessed as increase in cleaved caspase-3 level incubated for 36 hrs by Western blot analysis; type: functional, cell-based
NCI-H69 [9] = assay: Induction of apoptosis in human NCI-H69 cells assessed as decrease in BCL-2 expression incubated for 36 hrs by Western blot analysis; type: functional, cell-based
[10] = target: CDK1/Cyclin E (Homo sapiens) (UniProt P06493+P24864); assay: Inhibition of CDK1/cyclin E1 (unknown origin) at 10 nM relative to control; type: protein-complex assay
[11] = target: Cyclin-dependent kinase 9 (Homo sapiens) (UniProt P50750); assay: Inhibition of CDK9-related signaling in human NCI-H69 cells assessed as decrease in RNA polymerase II phosphorylation at Ser2 residue at 0.5 to 10 nM incubated for 24 hrs by Western blot analysis; type: cell-based; conditions: dose 0.5-10 nM
[12] = target: T1, Protein cereblon/Cyclin-dependent kinase 9; assay: PROTAC activity at CRBN/CDK9 in human NCI-H446 cells assessed as induction of CDK9 degradation by measuring reduction in half-life incubated upto 24 hrs in presence of cycloheximide by Western blot analysis; type: cell-based
NCI-H69 [13] = assay: Induction of apoptosis in human NCI-H69 cells assessed as increase in cleaved PARP level incubated for 36 hrs by Western blot analysis; type: functional, cell-based
DMS-114 = assay: Inhibition of colony formation in human DMS-114 cells at 2 to 4 nM incubated for 8 days by crystal violet staining based analysis; type: functional, cell-based; conditions: dose 2-4 nM, time 8.0 day
[14] = target: T1, Protein cereblon/Cyclin-dependent kinase 9; assay: PROTAC activity at CRBN/CDK9 in human NCI-H69 cells assessed as induction of CDK9 degradation by measuring reduction in half-life incubated upto 24 hrs in presence of cycloheximide by Western blot analysis; type: cell-based
[15] = target: CDK12/Cyclin K (Homo sapiens) (UniProt O75909+Q9NYV4); assay: Inhibition of CDK12/Cyclin K (unknown origin) at 10 nM relative to control; type: protein-complex assay
[16] = target: Cyclin-dependent kinase 4/cyclin D1 (Homo sapiens) (UniProt P11802+P24385); assay: Inhibition of CDK4/cyclin D1 (unknown origin) at 10 nM relative to control; type: protein-complex assay
NCI-H446 [17] = assay: Inhibition of colony formation in human NCI-H446 cells at 2 to 4 nM incubated for 8 days by crystal violet staining based analysis; type: functional, cell-based; conditions: dose 2-4 nM, time 8.0 day
NCI-H69 [18] = assay: Downregulation of CDK9 protein level in human NCI-H69 cells at 1 to 10 nM incubated for 8 hrs by Western blot analysis; type: functional, cell-based; conditions: dose 1-10 nM
[19] = target: Cyclin-dependent kinase 1/cyclin B1 (Homo sapiens) (UniProt P06493+P14635); assay: Inhibition of CDK1/cyclin B1 (unknown origin) at 10 nM relative to control; type: protein-complex assay
[20] = target: Cyclin-dependent kinase 9 (Homo sapiens) (UniProt P50750); assay: Inhibition of CDK9-related signaling in human NCI-H69 cells assessed as reduction in c-MYC expression level at 0.5 to 10 nM incubated for 24 hrs by Western blot analysis; type: cell-based; conditions: dose 0.5-10 nM
[21] = target: CDK2/Cyclin A2 (Homo sapiens) (UniProt P24941+P20248); conditions: dose 10.0 nM
[22] = target: Cyclin-Y/Cyclin-dependent kinase 16 (Homo sapiens) (UniProt Q00536+Q8ND76); conditions: dose 10.0 nM
[23] = target: T1, Protein cereblon/Cyclin-dependent kinase 9; assay: PROTAC activity at CRBN/CDK9 in human NCI-H446 cells assessed as induction of CDK9 degradation at 10 nM by Western blot analysis relative to control; type: cell-based
[24] = target: T1, Protein cereblon/Cyclin-dependent kinase 9; assay: In vivo PROTAC activity at CRBN/CDK9 in female BALB/c nude mouse xenografted with human NCI-H446 cells assessed as induction of CDK9 degradation in tumor at 25 mg/kg, po measured after 6 to 12 hrs by Western blot analysis; type: functional, organism-based; conditions: time 6-12 hrs
NCI-H446 [25] = assay: Induction of apoptosis in human NCI-H446 cells incubated for 36 hrs by Annexin V-FITC/PI staining based flow cytometric analysis; type: functional, cell-based; conditions: dose 1-8 nM
[26] = target: Cyclin-dependent kinase 2/cyclin E1 (Homo sapiens) (UniProt P24864+P24941); conditions: dose 10.0 nM
NCI-H69 [27] = assay: Induction of apoptosis in human NCI-H69 cells assessed as increase in p53 level incubated for 36 hrs by Western blot analysis; type: functional, cell-based
NCI-H69 [28] = assay: Cell cycle arrest in human NCI-H69 cells assessed as increase in G1 phase population incubated for 36 hrs by PI staining based flow cytometric analysis; type: functional; conditions: dose 0.5-4 nM
NCI-H446 [29] = assay: Antitumor activity against human NCI-H446 cells expressing luciferase-GFP xenografted in female NU-NU mouse model assessed as decrease in tumor burden at 12.5 to 25 mg/kg, po administered for 19 days; type: functional, organism-based; conditions: dose 12.5-25 mg/kg, time 19.0 day
NCI-H446 [30] = assay: Downregulation of CDK9 protein level in human NCI-H446 cells at 10 nM incubated for 3 hrs by quantitative proteomic analysis; type: functional, cell-based
[31] = target: T1, Protein cereblon/Cyclin-dependent kinase 9; assay: In vivo PROTAC activity at CRBN/CDK9 in female BALB/c nude mouse xenografted with human NCI-H446 cells assessed as induction of CDK9 degradation in tumor at 25 mg/kg, po measured after 24 hrs by Western blot analysis; type: functional, organism-based
NCI-H69 [32] = assay: Induction of apoptosis in human NCI-H69 cells assessed as decrease in MCL-1 expression incubated for 36 hrs by Western blot analysis; type: functional, cell-based
[33] = target: T1, Protein cereblon/Cyclin-dependent kinase 9; assay: PROTAC activity at CRBN/CDK9 in human NCI-H69 cells assessed as induction of CDK9 degradation preincubated with AT-7519 for 2 hrs followed by compound addition and measured after 3 hrs by Western blot analysis; type: cell-based

T1 sequence (P50750 whole entry, looked up): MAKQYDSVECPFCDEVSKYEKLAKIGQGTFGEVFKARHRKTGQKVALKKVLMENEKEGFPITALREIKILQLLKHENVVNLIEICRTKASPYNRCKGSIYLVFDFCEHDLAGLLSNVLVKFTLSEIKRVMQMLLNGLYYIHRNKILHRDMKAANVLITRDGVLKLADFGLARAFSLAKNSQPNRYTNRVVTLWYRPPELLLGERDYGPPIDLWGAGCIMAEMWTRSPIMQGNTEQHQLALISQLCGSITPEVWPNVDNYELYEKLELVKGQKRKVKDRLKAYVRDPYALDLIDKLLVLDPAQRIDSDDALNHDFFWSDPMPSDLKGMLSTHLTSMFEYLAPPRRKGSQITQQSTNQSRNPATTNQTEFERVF
T1 sequence (Q96SW2 whole entry, looked up): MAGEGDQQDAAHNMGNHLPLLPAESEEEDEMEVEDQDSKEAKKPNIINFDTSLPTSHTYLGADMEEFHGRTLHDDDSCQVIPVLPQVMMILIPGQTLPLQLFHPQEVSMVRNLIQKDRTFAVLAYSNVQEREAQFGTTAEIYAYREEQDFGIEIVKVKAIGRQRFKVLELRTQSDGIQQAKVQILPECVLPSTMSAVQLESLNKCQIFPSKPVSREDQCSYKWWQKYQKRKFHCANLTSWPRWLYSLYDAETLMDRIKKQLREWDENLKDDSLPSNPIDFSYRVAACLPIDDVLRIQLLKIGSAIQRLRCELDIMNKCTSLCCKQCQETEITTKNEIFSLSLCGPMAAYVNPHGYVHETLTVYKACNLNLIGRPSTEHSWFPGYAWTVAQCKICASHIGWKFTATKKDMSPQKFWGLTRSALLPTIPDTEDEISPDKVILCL
Chain of Cyclin-dependent kinase 9 (Homo sapiens) (P50750 whole entry): as the sequence (P50750 whole entry, looked up) above
Chain of Cyclin-dependent kinase 1/cyclin B1 (Homo sapiens) (P06493 whole entry, looked up): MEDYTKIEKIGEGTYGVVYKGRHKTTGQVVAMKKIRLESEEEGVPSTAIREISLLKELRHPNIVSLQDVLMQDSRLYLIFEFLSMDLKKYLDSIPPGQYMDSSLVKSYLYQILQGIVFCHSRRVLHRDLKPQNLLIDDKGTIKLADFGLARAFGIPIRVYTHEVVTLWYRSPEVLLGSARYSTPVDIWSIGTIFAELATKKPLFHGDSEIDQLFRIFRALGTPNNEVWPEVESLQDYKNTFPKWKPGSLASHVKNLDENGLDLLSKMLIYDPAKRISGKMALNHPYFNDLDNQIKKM
Chain of Cyclin-dependent kinase 1/cyclin B1 (Homo sapiens) (P14635 whole entry, looked up): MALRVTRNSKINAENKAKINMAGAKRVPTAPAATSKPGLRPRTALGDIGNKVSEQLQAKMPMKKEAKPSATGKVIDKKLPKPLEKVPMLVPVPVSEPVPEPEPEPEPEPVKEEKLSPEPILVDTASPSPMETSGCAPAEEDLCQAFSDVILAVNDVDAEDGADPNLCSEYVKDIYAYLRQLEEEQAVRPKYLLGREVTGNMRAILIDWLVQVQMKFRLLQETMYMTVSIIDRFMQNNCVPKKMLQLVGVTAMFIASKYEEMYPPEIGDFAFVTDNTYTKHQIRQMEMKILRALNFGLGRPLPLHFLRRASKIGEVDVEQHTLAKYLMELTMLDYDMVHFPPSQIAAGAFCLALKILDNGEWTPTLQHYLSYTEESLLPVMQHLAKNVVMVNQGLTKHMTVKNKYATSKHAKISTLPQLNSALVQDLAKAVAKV
Chain of CDK1/Cyclin E (Homo sapiens) (P06493 whole entry, looked up): as the sequence (P06493 whole entry, looked up) above
Chain of CDK1/Cyclin E (Homo sapiens) (P24864 whole entry, looked up): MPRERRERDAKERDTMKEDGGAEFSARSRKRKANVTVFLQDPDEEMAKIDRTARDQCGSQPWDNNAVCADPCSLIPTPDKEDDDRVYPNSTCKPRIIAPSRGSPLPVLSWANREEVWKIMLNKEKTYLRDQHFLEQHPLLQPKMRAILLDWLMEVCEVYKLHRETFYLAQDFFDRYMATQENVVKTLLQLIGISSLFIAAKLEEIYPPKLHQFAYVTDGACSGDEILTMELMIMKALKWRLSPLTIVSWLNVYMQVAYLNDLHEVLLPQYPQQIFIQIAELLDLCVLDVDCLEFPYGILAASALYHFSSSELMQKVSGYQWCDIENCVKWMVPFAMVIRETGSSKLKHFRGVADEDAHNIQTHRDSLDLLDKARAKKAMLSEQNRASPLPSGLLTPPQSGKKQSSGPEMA
Chain of CDK3/Cyclin E (Homo sapiens) (P24864 whole entry, looked up): as above
Chain of CDK3/Cyclin E (Homo sapiens) (Q00526 whole entry, looked up): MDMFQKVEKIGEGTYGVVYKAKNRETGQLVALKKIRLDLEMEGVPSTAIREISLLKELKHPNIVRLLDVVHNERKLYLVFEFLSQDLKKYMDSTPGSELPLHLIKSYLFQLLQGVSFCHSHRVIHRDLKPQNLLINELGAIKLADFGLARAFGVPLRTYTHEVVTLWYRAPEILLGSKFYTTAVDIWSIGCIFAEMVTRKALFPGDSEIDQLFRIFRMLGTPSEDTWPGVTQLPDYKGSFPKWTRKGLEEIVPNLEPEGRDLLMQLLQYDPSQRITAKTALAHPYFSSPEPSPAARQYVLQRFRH
Chain of Cyclin-dependent kinase 5/CDK5 activator 1 (Homo sapiens) (Q00535 whole entry): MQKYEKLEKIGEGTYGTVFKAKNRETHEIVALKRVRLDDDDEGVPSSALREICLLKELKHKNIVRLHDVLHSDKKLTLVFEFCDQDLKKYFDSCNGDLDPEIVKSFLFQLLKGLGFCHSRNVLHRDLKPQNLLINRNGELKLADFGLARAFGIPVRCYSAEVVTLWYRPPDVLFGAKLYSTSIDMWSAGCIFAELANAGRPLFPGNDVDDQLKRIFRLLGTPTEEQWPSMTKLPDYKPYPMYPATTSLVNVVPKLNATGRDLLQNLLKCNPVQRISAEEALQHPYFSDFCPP
Chain of Cyclin-dependent kinase 5/CDK5 activator 1 (Homo sapiens) (Q15078 99-307 partner limits assumed): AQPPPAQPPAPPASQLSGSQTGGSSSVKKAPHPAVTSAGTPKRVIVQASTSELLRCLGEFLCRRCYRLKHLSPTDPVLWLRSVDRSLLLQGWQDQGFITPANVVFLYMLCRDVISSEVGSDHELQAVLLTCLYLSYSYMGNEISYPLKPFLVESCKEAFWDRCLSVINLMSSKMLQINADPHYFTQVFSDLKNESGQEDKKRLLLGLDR

O=C1CCC(Nc2cccc(N3CCN(CC4CCN(CC(=O)N5CCC(NC(=O)c6n[nH]cc6NC(=O)c6c(Cl)cccc6Cl)CC5)CC4)CC3)c2)C(=O)N1 (centres undefined)
inhibition [1]: 31%
Activity (NCI-H69 [2]): Dose-dependent-effect
Activity [3]: Active
Activity (NCI-H446 [4]): Dose-dependent-effect
Activity [5]: Active
inhibition [6]: 45%
Activity [7]: Active
Activity (NCI-H69 [8]): Dose-dependent-effect
Activity (NCI-H69 [9]): Dose-dependent-effect
inhibition [10]: 24%
inhibition [11]: Active
Activity [12]: Active
Activity (NCI-H69 [13]): Dose-dependent-effect
inhibition (DMS-114): Active
Activity [14]: Active
inhibition [15]: 38%
inhibition [16]: 37%
inhibition (NCI-H446 [17]): Active
Activity (NCI-H69 [18]): Active
inhibition [19]: 46%
inhibition [20]: Active
inhibition [21]: 33%
inhibition [22]: 38%
Activity [23]: 93.4%
Activity [24]: Active
Activity (NCI-H446 [25]): Dose-dependent-effect
inhibition [26]: 35%
Activity (NCI-H69 [27]): Dose-dependent-effect
Activity (NCI-H69 [28]): Dose-dependent-effect
Activity (NCI-H446 [29]): Active
Activity (NCI-H446 [30]): Active
Activity [31]: Not active; Very Short Self-Renewal Period For Cdk9 Observed
Activity (NCI-H69 [32]): Dose-dependent-effect
Activity [33]: inactive
